Data taken from ChEMBL document CHEMBL3525928 (Drug Metab Dispos, 2011).

Experiments:
Assay type in all cases: ADME, cell-based
OATP2B1 [1] = biological target: T1, OATP2B1 (Homo sapiens, UniProt O94956); test: Drug uptake ratio assessed as enzyme-mediated uptake in HEK293 cells expressing human OATP2B1 at 1 uM at 37 degC for 3 mins by liquid scintillation spectroscopy relative to wild type
T1 sequence (O94956 whole entry): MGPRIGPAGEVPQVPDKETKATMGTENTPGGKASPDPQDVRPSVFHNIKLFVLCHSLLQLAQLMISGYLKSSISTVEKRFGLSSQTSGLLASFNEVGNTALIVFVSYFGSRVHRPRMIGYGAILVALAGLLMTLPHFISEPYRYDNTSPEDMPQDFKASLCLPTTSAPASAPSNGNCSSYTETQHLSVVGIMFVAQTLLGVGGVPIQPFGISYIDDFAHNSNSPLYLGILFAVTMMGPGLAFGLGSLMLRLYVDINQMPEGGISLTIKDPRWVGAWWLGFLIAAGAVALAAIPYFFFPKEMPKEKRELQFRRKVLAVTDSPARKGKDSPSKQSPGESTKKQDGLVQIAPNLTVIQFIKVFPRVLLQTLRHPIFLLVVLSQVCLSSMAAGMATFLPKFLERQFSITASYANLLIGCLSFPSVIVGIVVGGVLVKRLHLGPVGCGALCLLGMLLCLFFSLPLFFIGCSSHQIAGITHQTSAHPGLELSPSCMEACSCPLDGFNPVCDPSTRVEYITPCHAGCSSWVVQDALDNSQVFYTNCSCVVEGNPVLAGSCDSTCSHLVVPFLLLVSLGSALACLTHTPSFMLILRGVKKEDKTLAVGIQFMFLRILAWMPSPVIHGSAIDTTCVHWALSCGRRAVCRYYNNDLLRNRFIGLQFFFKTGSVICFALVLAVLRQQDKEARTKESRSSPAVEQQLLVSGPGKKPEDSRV

OATP2B1 [2] = biological target: T1, OATP2B1; test: Drug uptake ratio assessed as enzyme-mediated uptake in HEK293 cells expressing human OATP2B1 at 10 uM at 37 degC for 3 mins by liquid scintillation spectroscopy relative to wild type
OATP1B1 [3] = biological target: T2, OATP1B1 (Homo sapiens, UniProt Q9Y6L6); test: Drug uptake ratio assessed as enzyme-mediated uptake in HEK293 cells expressing human OATP1B1 at 10 uM at 37 degC for 3 mins by liquid scintillation spectroscopy relative to wild type
T2 sequence (Q9Y6L6 whole entry): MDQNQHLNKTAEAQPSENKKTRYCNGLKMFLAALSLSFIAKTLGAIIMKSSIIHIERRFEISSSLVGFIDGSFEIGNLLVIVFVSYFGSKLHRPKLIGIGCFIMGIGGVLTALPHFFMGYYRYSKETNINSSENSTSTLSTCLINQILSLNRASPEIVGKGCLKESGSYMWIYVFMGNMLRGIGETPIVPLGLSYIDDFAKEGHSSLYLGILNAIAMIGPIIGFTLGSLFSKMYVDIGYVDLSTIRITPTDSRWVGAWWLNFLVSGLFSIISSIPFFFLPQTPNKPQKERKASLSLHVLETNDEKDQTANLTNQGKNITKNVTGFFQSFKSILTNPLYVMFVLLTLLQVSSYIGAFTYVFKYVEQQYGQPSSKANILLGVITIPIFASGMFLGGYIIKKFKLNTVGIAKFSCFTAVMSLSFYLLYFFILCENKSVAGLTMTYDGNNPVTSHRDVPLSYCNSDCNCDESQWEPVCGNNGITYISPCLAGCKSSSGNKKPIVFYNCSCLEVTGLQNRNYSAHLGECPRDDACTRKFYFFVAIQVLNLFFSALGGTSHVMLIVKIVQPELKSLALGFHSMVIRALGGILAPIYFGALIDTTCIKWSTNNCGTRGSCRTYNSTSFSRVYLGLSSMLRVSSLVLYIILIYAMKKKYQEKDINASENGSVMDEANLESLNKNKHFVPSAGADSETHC

OATP1B1 [4] = biological target: T2, OATP1B1; test: Drug uptake ratio assessed as enzyme-mediated uptake in HEK293 cells expressing human OATP1B1 at 1 uM at 37 degC for 3 mins by liquid scintillation spectroscopy relative to wild type
OATP1B3 [5] = biological target: T3, OATP1B3 (Homo sapiens, UniProt Q9NPD5); test: Drug uptake ratio assessed as enzyme-mediated uptake in HEK293 cells expressing human OATP1B3 at 10 uM at 37 degC for 3 mins cells pretreated with sodium butyrate by liquid scintillation spectroscopy relative to wild type
T3 sequence (Q9NPD5 whole entry): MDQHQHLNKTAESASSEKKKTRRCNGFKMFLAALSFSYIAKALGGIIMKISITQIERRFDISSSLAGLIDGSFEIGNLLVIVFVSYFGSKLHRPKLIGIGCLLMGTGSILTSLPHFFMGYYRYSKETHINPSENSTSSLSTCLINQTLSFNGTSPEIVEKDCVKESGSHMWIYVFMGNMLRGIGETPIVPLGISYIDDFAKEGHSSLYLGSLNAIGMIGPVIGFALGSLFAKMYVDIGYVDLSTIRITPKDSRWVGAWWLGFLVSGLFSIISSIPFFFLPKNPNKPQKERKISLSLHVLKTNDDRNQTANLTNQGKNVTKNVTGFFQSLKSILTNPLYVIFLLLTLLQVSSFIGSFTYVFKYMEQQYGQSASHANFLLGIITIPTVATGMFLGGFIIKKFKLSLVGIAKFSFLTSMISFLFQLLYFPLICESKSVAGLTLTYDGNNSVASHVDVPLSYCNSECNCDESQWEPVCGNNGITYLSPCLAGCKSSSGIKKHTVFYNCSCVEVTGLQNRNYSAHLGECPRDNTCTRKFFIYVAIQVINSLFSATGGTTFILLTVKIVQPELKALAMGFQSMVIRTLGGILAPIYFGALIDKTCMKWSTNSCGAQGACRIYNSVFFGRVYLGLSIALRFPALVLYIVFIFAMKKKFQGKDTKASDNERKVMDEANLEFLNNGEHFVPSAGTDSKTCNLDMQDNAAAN

OATP1B3 [6] = biological target: T3, OATP1B3; test: Drug uptake ratio assessed as enzyme-mediated uptake in HEK293 cells expressing human OATP1B3 at 1 uM at 37 degC for 3 mins cells pretreated with sodium butyrate by liquid scintillation spectroscopy relative to wild type
OATP1B3 [7] = biological target: T3, OATP1B3; test: Drug uptake ratio assessed as enzyme-mediated uptake in HEK293 cells expressing human OATP1B3 at 10 uM at 37 degC for 3 mins by liquid scintillation spectroscopy relative to wild type
OATP1B3 [8] = biological target: T3, OATP1B3; test: Drug uptake ratio assessed as enzyme-mediated uptake in HEK293 cells expressing human OATP1B3 at 1 uM at 37 degC for 3 mins by liquid scintillation spectroscopy relative to wild type

Compound	uptake ratio at 0.05 h, 1 µM (OATP2B1 [1])	uptake ratio at 0.05 h, 10 µM (OATP2B1 [2])	uptake ratio at 0.05 h, 10 µM (OATP1B1 [3])	uptake ratio at 0.05 h, 1 µM (OATP1B1 [4])	uptake ratio at 0.05 h, 10 µM (OATP1B3 [5])	uptake ratio at 0.05 h, 1 µM (OATP1B3 [6])	uptake ratio at 0.05 h, 10 µM (OATP1B3 [7])	uptake ratio at 0.05 h, 1 µM (OATP1B3 [8])
C[C@]12CC[C@@H]3c4ccc(OS(=O)(=O)O)cc4CC[C@H]3[C@@H]1CCC2=O [ESTRONE SULFURIC ACID]	44	50	2.2	6.7	–	–	–	–
Cc1ncc2n1-c1ccc(Cl)cc1C(c1ccccc1F)=NC2 [MIDAZOLAM]	–	–	0.92	0.92	1.9	2.1	1.7	1.7
CC(C)c1nc(N(C)S(C)(=O)=O)nc(-c2ccc(F)cc2)c1/C=C/[C@@H](O)C[C@@H](O)CC(=O)O [ROSUVASTATIN]	6	6.3	1.9	3.4	25	16	39	35
